Measurements taken from patent publication US20250136610A1, “CRYSTALLINE FORMS OF TRILACICLIB AND TRILACICLIB SALTS” (TEVA PHARMACEUTICALS INTERNATIONAL GMBH, priority 2022, published 2025).
Counter-ions that a name gives are not always drawn.

Legend:
Type in all cases: physicochemical
[1] = Storage stability at different relative humidities and temperatures, months (XRPD)
Protocol: (§1) X-ray diffraction was performed on X-Ray powder diffractometer: Bruker D8 Advance; CuKα radiation (λ=1.5418 Å); Lynx eye detector; laboratory temperature 22-25° C.; PMMA specimen holder ring with silicon low background. Prior to analysis, the samples were gently ground by means of mortar and pestle in order to obtain a fine powder. The ground sample was adjusted into a cavity of the sample holder and the surface of the sample was smoothed by means of a cover glass.
(§2) • Scan range: 2-40 degrees 2-theta; • Scan mode: continuous; • Step size: 0.05 degrees; • Time per step: 0.5 s; • Sample spin: 30 rpm; • Sample holder: PMMA specimen holder ring with silicon low background. • All X-Ray Powder Diffraction peak values are calibrated with regard to standard silicon spiking in the sample. ssNMR Method:
Samples of Trilaciclib citrate Form TCT3 were subjected to conditions of different relative humidities at different temperatures. XRPD analysis was performed on the samples after 2 months.
Form TCT3 of Trilaciclib citrate was also found to be stable for at least 2 months at 2-8° C. Moreover, Form TCT3 is stable for at least 3 months at room temperature and humidity.

[2] = Grinding experiments (strong grinding and solvent drop grinding, XRPD); details: 2 minutes
Protocol: as §1, §2
Samples of Trilaciclib citrate Form TCT3 were subjected to strong grinding, and to solvent drop grinding in isopropanol, ethanol and water. Grinding was carried out on the samples alone, or in the presence of ethanol or water. In these experiments, about 20 mg of the sample is placed in a mortar and ground with a pestle for 2 minutes. The solvent, when used, as added to the crystalline material before grinding, in a volume of 10 microliters.

[3] = Thermal stability (heating up to 100° C., XRPD); details: heating 100° C., 30 minutes
Protocol: as §1, §2
A sample of Trilaciclib citrate Form TCT3 was subjected to heating up to 100° C. for 30 minutes.

[4] = Stability under all tested stress conditions (summary statement); details: strong grinding, pressure of 2 tons, up to 100% RH for 7 days, up to 100° C.

- time for which the form is stable ([1]; at 2-8° C.): at least 2 months
- time for which the form is stable ([1]; at room temperature and humidity): at least 3 months
- XRPD analysis results ([2]; solvent-drop grinding (ethanol), 10 microliters): No polymorphic conversion
- XRPD analysis results ([2]; solvent-drop grinding (isopropanol), 10 microliters): No polymorphic conversion
- XRPD analysis results ([2]; solvent-drop grinding (water), 10 microliters): No polymorphic conversion
- XRPD analysis results ([2]; strong grinding, no solvent): No polymorphic conversion
- Result (XRPD analysis) [3]: No polymorphic conversion
SMILES: CN1CCN(c2ccc(Nc3ncc4cc5n(c4n3)C3(CCCCC3)CNC5=O)nc2)CC1 [Trilaciclib citrate Form TCT3, Trilaciclib citrate salt]
- stability under stress conditions [4]: stable under all tested stress conditions
